Results on 12 compounds are retold here after paper PMC4581690, “Targeting Lysine Deacetylases (KDACs) in Parasites” (PLoS Neglected Tropical Diseases, 2015).

Assay [1] concerns P. falciparum 3D7 strain. Description: MAL vt: Malaria viability assay. The class given is cell-based. The settings on record: Plasmodium falciparum.
In assay [2] the test system is T. brucei strain S427. Kind of assay: HAT vt: Human African trypanosoma viability assay. Format: cell-based. The settings on record: 72 hour, resazurin, read-out: measured activity (IC50), HAT vt, TbbS427. (In general: The colour change of resazurin is a common sign of viable cells or microbes.)
In assay [3] the test system is L929 mouse fibroblast. Description: CYT vt: cytotoxicity viability assay. The class given is cell-based.
The subject of assay [4] is L. donovani strain MHOM/SD/00/LS. Description: LEI axe: Leishmania axenic amastigote assay. Format: cell-based.
The subject of assay [5] is Dirofilaria immitis. Description: Endoparasites_DR: endoparasites dose response assay, D. immitis. Format: cell-based. The settings on record: 72 h, read-out: measured activity (EC50), Endoparasites_DR, D. immitis.
Assay [6] deals with Brugia malayi. Description: Endoparasites_DR: endoparasites dose response assay, B. malayi. Format: cell-based.
Assay [7] has as its system human cancer cell lines. More on the design: method as in PMID 23526814. The settings on record: 8b and 10c therein; cited from earlier work.
Assay [8] deals with parasite species and L929 mouse fibroblast. Description: In vitro screening of compounds against parasite panel and mammalian cell line (overall statements). The class given is cell-based.
For assay [9], the system named is Haemonchus contortus. Description: microbe, parasite or virus in culture. The class given is cell-based. The settings on record: 96 hour, read-out: measured activity (EC50), Endoparasites_DR, H. contortus.
Where [10] appears, read: 3D7, 0.25 h, timepoint 15 minute, read-out: measured activity (IC50), MAL vt, PfDd2.
[11] abbreviates: Mus musculus, L929, read-out: measured activity (IC50), CYT vt, L929.
[12] abbreviates: 72 hour, axenic amastigotes, resazurin, read-out: measured activity (IC50), LEI axe, Ld1S.
The mark [13] stands for this setting: 120 h, 5 day, read-out: measured activity (EC50), Endoparasites_DR, B. malayi.
[14] abbreviates: Table 2, column B. malayi, read-out: EC50(IC50).
Where [15] appears, read: Mus musculus, Table 2, column H. sapiens, same values as L929 in Table 1, read-out: EC50(IC50).

Like-named read-outs stand apart in the source and are kept apart here.

As for `O=C(CCCCCCC(=O)Nc1ccccc1)NO` [GRM1, SAHA, reference compound], the IC50 (commonly the concentration that gives 50% inhibition) in assay [1] (setting [10]) turned out to be 0.152 µM.

In the case of `CN1CCc2c(c3ccccc3n2Cc2ccc(C(=O)NO)cc2)C1` [GRM2, Tubastatin, reference compound], the IC50 in assay [2] is 2.7 µM; in [3] (setting [11]), 6.22 µM; in [4] (setting [12]) it was more than 5 µM.

Consider `O=C(CCCCSc1nc(-c2ccc(-c3ccccc3)cc2)cc(=O)[nH]1)NO` [MC1742], for which the values for the IC50 in [1] (setting [10]) and in assay [3] (setting [11]) were less than 0.01 µM and 1.51 µM, respectively.

Turning to `O=C(CCCCCSc1nc2ccccc2c(=O)[nH]1)NO` [MC1862], the 50% inhibitory concentration (IC50) came out at 1.15 µM in [1] (setting [10]) and 7.12 µM in assay [3] (setting [11]).

`COc1cc(-c2ccccc2)nc(SCc2ccc(/C=C/C(=O)NO)cc2)n1` [MC2126]: the IC50 in assay [2] is 0.441 µM; in [1] (setting [10]) it was 1.92 µM; in assay [3] (setting [11]) it was 1.76 µM; in assay [4] (setting [12]) it was more than 5 µM.

As to `O=C(/C=C/c1ccc(NC(=O)C(Cc2ccccc2)c2ccccc2)cn1)NO` (stereo not drawn) [MC2625], the concentration for half-maximal inhibition (IC50) in [2] was 1.18 µM; in [1] (setting [10]), 0.022 µM; in assay [3] (setting [11]) it was 0.311 µM; in assay [4] (setting [12]), more than 5 µM.

Consider `CC(C)(C)OC(=O)Nc1ccc(-c2cc(C(=O)NCCCCCCC(=O)NO)no2)cc1` [MC2726], for which the IC50 in assay [1] (setting [10]) turned out to be 0.189 µM; in [3] (L929 mouse fibroblast, read-out: measured activity (IC50), CYT vt, L929) it was 1.92 µM.

As to `CC(C)(C)OC(=O)Nc1cccc(-c2cc(C(=O)NCCCCCCC(=O)NO)no2)c1` [MC2727a], the concentration for half-maximal inhibition (IC50) in assay [1] (setting [10]) was 0.96 µM; in [3] (setting [11]), 2.35 µM.

In the case of `Cn1cc(/C=C/C(=O)c2cccc(NC(=O)OC(C)(C)C)c2)cc1C(=O)NO` [MC2776], the EC50 (as a rule, the concentration giving half of the maximal effect) was more than 10 µM in assay [5], 4.39 µM in assay [6] (setting [13]) and 4.39 µM in assay [6] (setting [14]). In addition, the IC50 in [7] and in assay [3] (setting [15]) was more than 10 µM in each case. For the same compound, in [8] (T. brucei, L. donovani, P. falciparum), the “efficacy in the protists” value is on record as “did not show any efficacy”.

Regarding `CC(C)(C)OC(=O)Nc1cccc(C(=O)/C=C/c2ccc(/C=C/C(=O)NO)cc2)c1` [MC2780], the IC50 amounted to 0.623 µM in assay [2]; 0.056 µM in assay [1] (setting [10]); 0.06 µM in assay [1] (3D7, Table 2, column P. falciparum, read-out: EC50(IC50)); 4.81 µM in [3] (setting [15]); 0.473 µM in [4] (setting [12]); 0.47 µM in [4] (Table 2, column L. donovani, read-out: EC50(IC50)). In addition, the EC50 in assay [5] was found to be 8.14 µM; in [6] (setting [13]) it was 2.53 µM; in assay [6] (setting [14]), 2.53 µM. In addition, the “IC50 on human cancer cell lines” value in assay [7] was “more potent IC50”. Besides, the activity across parasites entry in assay [8] is given as “pan-parasite potential”.

As to `CN(C)Cc1ccc(S(=O)(=O)n2ccc3cc(/C=C/C(=O)NO)ccc32)cc1` [MC3031], the IC50 is 0.267 µM in [2], 0.555 µM in assay [3] (setting [11]) and more than 5 µM in assay [4] (setting [12]).

In the case of `CCCCCCCC(=O)SCC/C=C/[C@@H]1CC(=O)NCc2nc(cs2)C2=N[C@@](C)(CS2)C(=O)N[C@@H](C(C)C)C(=O)O1` [SD-L-148, Largazole, reference compound], the EC50 in [9] turned out to be 7.1 µM. Moreover, the IC50 in assay [3] (setting [11]) worked out at 0.101 µM.
